The source of these data is PMC3378510 (Nature immunology, 2012).

Assay [1] concerns 1E6 CD8^+ T cell clone. Put plainly: Peptide mutagenesis scan of 1E6 T cells, TNF secretion. It counts as cell-based, human. The conditions noted are these: compared with index peptide; peptide 1 μg/ml, 16 hr.
Assay [2] has as its system 1E6 clone, in the context of HLA A*0201. As to conditions: compared with preproinsulin-derived peptide ALWGPDPAAA; cited from earlier work.

With “Q: L Position 2: ALWGPDPAAA with L2 mutated to Q (AQWGPDPAAA)”, the “TNF response / activation, in words” value in assay [1] was “larger responses compared with the index peptide”.

With “R: A Position 1: ALWGPDPAAA with A1 mutated to R (RLWGPDPAAA)”, the “TNF response / activation, in words” value in assay [1] was “larger responses compared with the index peptide”.

For RQFGPDFPTI, in assay [2], the “agonist potency, in words” value is “most potent peptide identified”.
